# Laboratory results reported in article PMC10661773, “Cytotoxic pathways activated by multifunctional thiosemicarbazones targeting sigma-2 receptors in breast and lung carcinoma cells” (Pharmacological Reports, 2023).
# How the values were obtained:
# caspase 7 in MCF7 cells = test: Caspase 7 activity, fluorimetric; type: cell-based, human; settings: MCF7, 2 h, 50 µM
# Description: (§1) Activation of caspase 3, caspase 7 and caspase 9 was measured using the Caspase 3/7 Fluorescence Assay kit (Cayman Chemical, Ann Arbor, MI; #10,009,135) and the Caspase 9 fluorimetric assay kit (Enzo Life Science, Roma, Italy; #ALX-850-224). The results were expressed as nmoles of the hydrolyzed substrate of each caspase/mg cellular proteins, according to a previously set titration curve.
# caspase 7 in A549 cells = test: Caspase 7 activity, fluorimetric; type: cell-based, human; settings: A549, 2 h, 50 µM
# Description: as §1
# sigma-2 receptors = sigma-2 receptors (Homo sapiens, UniProt Q5BJF2); settings: read-out: Sigma-2 Affinity Ki; cited from earlier work
# Sequence of sigma-2 receptors (Q5BJF2 whole entry): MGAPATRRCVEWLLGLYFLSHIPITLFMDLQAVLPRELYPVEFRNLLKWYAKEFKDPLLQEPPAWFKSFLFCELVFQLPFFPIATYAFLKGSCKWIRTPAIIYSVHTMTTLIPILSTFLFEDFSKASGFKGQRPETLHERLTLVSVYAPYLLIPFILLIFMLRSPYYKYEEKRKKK
# MCF7 cells [1] = test: Mitochondrial ROS, MitoSOX staining; type: cell-based, human; settings: MCF7, 2 h, 50 µM
# Description: (§2) Intramitochondrial reactive oxygen species (ROS) were measured using the MitoSOX fluorescent probe (Invitrogen ThermoScientific, # M36008), according to the manufacturer’s instructions. For total ROS, cells were incubated with 5 µmol/L of 5-(and-6)-chlorometyl-20,70-dichlorodihydro-fluorescein diacetate-acetoxymethyl ester (DCFDA-AM, Sigma, #21,884), as described by Riganti et al. 2015 [21]. The results are expressed as nmoles/mg mitochondrial or cellular proteins, respectively.
# A549 cells [2] = test: Mitochondrial ROS, MitoSOX staining; type: cell-based, human; settings: A549, 2 h, 50 µM
# Description: as §2
# P-gp = target: T1, P-gp (Homo sapiens, UniProt P08183); test: P-gp activity, Calcein-AM assay in MDCK-MDR1 cells; type: cell-based; settings: read-out: P-gp Activity EC50 ± SEM
# T1 construct: expressed in transfected cells; host or cells: MDCK-MDR1
# T1 sequence (P08183 whole entry): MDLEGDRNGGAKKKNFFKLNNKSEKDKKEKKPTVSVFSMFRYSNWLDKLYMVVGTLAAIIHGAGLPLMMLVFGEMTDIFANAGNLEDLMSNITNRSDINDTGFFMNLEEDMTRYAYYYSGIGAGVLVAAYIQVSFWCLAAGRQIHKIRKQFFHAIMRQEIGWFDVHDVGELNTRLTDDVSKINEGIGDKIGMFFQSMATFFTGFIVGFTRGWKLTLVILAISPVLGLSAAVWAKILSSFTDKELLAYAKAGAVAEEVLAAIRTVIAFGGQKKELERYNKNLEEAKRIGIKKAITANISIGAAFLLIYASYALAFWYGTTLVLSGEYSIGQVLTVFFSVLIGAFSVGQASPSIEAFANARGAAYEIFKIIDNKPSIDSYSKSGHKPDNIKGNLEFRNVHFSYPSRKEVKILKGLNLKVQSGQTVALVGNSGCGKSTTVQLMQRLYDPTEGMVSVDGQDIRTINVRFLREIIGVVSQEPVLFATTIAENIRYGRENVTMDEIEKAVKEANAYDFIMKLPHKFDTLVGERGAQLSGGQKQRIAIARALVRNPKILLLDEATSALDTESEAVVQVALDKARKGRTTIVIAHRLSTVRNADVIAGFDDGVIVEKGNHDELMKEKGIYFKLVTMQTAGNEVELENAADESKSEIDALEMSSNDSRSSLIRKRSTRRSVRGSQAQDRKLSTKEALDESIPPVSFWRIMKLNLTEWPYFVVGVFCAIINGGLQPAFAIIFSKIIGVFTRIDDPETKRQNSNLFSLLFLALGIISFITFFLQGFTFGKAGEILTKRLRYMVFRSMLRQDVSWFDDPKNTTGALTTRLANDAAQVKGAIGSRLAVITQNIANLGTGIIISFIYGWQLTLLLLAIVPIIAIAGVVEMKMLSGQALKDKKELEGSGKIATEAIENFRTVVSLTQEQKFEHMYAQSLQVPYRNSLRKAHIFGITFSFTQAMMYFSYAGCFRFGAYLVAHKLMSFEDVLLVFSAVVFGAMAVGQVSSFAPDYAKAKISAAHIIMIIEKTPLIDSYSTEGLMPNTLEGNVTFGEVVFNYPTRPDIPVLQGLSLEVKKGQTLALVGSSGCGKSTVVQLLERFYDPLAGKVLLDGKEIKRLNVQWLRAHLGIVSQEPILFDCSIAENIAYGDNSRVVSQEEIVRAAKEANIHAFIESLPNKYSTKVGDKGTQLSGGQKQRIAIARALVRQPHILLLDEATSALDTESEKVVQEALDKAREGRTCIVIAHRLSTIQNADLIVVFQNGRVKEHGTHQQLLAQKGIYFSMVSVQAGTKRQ
# Description: According to a previously reported procedure, MDCK-MDR1 cell lines (50,000 cells per well) were seeded into black CulturePlate 96/wells plate with […] medium and grown overnight to confluence. Aliquots (100 µL) of tested compounds in culture medium, at scalar concentrations ranging from 0,1 to 100 µM, were added to each well. The plate was incubated at 37 °C for 30 min, Calcein-AM in phosphate buffered saline (PBS, […]) was added to each well at a final concentration of […], and the plate was incubated for 30 min. The plate was washed 3 times with […] ice cold PBS, Saline buffer ([…]) was added to each well and the plate was read by a PerkinElmer Victor3 spectrofluorimeter at excitation and emission wavelengths of 485 nm and 535 nm, respectively. Under these conditions, calcein cell accumulation in the absence and in the presence of tested compounds was evaluated, and a fluorescence basal level was estimated by untreated cells. In treated wells, the increase of fluorescence with respect to the basal level was measured, EC50 values were determined by fitting the fluorescence increase percentage versus log[dose] with GraphPad Prism Software 5,0 (GraphPad Software, Inc,: San Diego, CA).
# MCF7 and A549 cell lines = test: Cytotoxic activity across the two tumor cell lines (MTT); type: cell-based; settings: Homo sapiens; MCF7 and A549, MTT 48 h; read-out: EC50 range in the two tumor cell lines
# Description: (§3) Human MCF7 breast adenocarcinoma (#HTB-22) and human A549 carcinoma (#CCL-85) cell lines, non-tumor human breast (MCF10A, #CRL-10317) and lung (BEAS-2B, #CRL-9482) cells were obtained from American Type Culture Collection (ATCC, Bethesda, MD). MCF7 cells were cultured in DMEM medium (Gibco Thermo Scientific, Waltham, MA; #10,565,018), A549 in HAM’s F12 medium (Gibco Thermo Scientific; #11,765,054), and BEAS-2B in RPMI-1640 medium (Gibco Thermo Scientific; # 61,870,010), all supplemented with 10% v/v fetal bovine serum (FBS; Sigma, St. Louis, MO; #F4135) and 1% v/v penicillin–streptomycin (Sigma; #P4458). MCF10A cells were cultured in DMEM/F12 medium (Gibco Thermo Scientific; #31,331,028) supplemented with 5% v/v horse serum (Sigma; #H1270) and 1% v/v penicillin–streptomycin, 20 ng/mL epidermal growth factor (Sigma, #E4127), 10 µg/mL insulin (Sigma, #I3536), […] hydrocortisone (Sigma, #H0888), 100 ng/mL cholera toxin (Sigma, #C8052). Cells were kept in a humidified incubator at 37 °C with 5% CO2.
# Cell growth was determined using the MTT assay at 48 h. On day 1, 25,000 cells/well were seeded into 96-well plates in a volume of 100 μL. […] Formazan crystals were solubilized using 100 μl of DMSO/EtOH (1:1) and absorbance values at 570 and 630 nm were determined on the microplate reader Victor 3 from PerkinElmer Life Sciences (Waltham, MA).
# MCF7 = test: Cell viability, MTT assay at 48 h; type: cell-based; settings: Homo sapiens, MCF7; MTT, 48 h; read-out: EC50 ± SEM, tumor cells MCF7
# Description: as §3
# (§4) Cell growth was determined using the MTT assay at 48 h. On day 1, 25,000 cells/well were seeded into 96-well plates in a volume of 100 μL. On day 2, the various drug concentrations (1 μM–100 μM) were added. In all experiments, the various drug solvents (EtOH, Sigma, # E7148; DMSO, Sigma, # D8418) were added to each control to evaluate possible cytotoxicity of the solvent. After the established incubation time with drugs (48 h), MTT (0.5 mg/mL, Sigma # M2003) was added to each well, and after 3–4 h incubation at 37 °C, the supernatant was removed. Formazan crystals were solubilized using 100 μl of DMSO/EtOH (1:1) and absorbance values at 570 and 630 nm were determined on the microplate reader Victor 3 from PerkinElmer Life Sciences (Waltham, MA).
# MCF10A = test: Cell viability, MTT assay at 48 h; type: cell-based; settings: Homo sapiens, MCF-10A, read-out: EC50 ± SEM, normal cells MCF10A
# Description: as §3, §4
# A549 = test: Cell viability, MTT assay at 48 h; type: cell-based; settings: Homo sapiens, A549; MTT, 48 h; read-out: EC50 ± SEM, tumor cells A549
# Description: as §3, §4
# BEAS-2B = test: Cell viability, MTT assay at 48 h; type: cell-based; settings: Homo sapiens, read-out: EC50 ± SEM, normal cells BEAS-2B
# Description: as §3, §4
# MCF7 and A549 cells = test: Whole cell ROS, DCFDA-AM probe; type: cell-based, human; settings: MCF7 and A549, 2 h, 50 µM
# Description: as §2
# caspase 3 in A549 cells = test: Caspase 3 activity, fluorimetric; type: cell-based, human; settings: A549, 2 h, 50 µM
# Description: as §1
# caspase 3 in MCF7 cells = test: Caspase 3 activity, fluorimetric; type: cell-based, human; settings: MCF7, 2 h, 50 µM
# Description: as §1
# MCF7 cells [3] = test: Mitochondrial depolarization, JC-1 staining; type: cell-based, human; settings: MCF7, 2 h, 50 µM
# Description: (§5) Staining with the JC-1 fluorescent probe (Biotium Inc., Freemont, CA; #30,001-30001-T) was performed as described in Riganti et al. 2015 [21]. Fluorescence units were used to calculate the percentage of green-fluorescent (i.e., depolarized) mitochondria vs red-fluorescent (i.e., polarized) mitochondria.
# A549 cells [4] = test: Mitochondrial depolarization, JC-1 staining; type: cell-based, human; settings: A549, 2 h, 50 µM
# Description: as §5
smiles,measurement,setting,value
"CN(C)C(=S)N/N=C1\C(=O)N(CCCCN2CCC3(CC2)OCc2ccccc23)c2ccccc21 [FA4, (Z)-2-(1-(4-(3H-spiro[isobenzofuran-1,4′-piperidine]-1′-yl)butyl)-2-oxoindolin-3-ylidene)-N,N-dimethylhydrazinecarbothioamide]",Caspase 7 activation,caspase 7 in MCF7 cells,activate
same,Caspase 7 activation,caspase 7 in A549 cells,activate
same,Ki,sigma-2 receptors,15.8 nM
same,Mitochondrial ROS (MitoSOX),MCF7 cells [1],increased
same,Mitochondrial ROS (MitoSOX),A549 cells [2],increased
same,EC50,P-gp,3800 nM
same,EC50,MCF7 and A549 cell lines,1530 to 1840 nM
same,EC50,MCF7,1530 ± 300 nM
same,EC50,MCF10A,4310 ± 700 nM
same,EC50,A549,1840 ± 400 nM
same,EC50,BEAS-2B,4470 ± 1100 nM
same,ROS levels in whole cells (DCFDA-AM),MCF7 and A549 cells,higher
same,Caspase 3 activation,caspase 3 in A549 cells,most potent inducer of caspase 3 in both cell lines
same,Caspase 3 activation,caspase 3 in MCF7 cells,most potent inducer of caspase 3 in both cell lines
same,Mitochondrial depolarization (JC-1 staining),MCF7 cells [3],strong depolarization
same,Mitochondrial depolarization (JC-1 staining),A549 cells [4],totally insensitive
